Activity calls are given as the source filed them.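 Rule for the calls: active = in confirmatory dose-response testing, peak deubiquitinase inhibition of 30% or more; inactive = the rest.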

The test deals with Ubiquitin carboxyl-terminal hydrolase 28 (Homo sapiens) (UniProt Q96RU2). The experiment in a line: Concentration-response biochemical assay confirming initial hits as inhibitors of ubiquitin-specific protease 28 (AID 1645866). As to conditions: purified USP28, ubiquitin-rhodamine fluorescence, 30 min.
Chain of Ubiquitin carboxyl-terminal hydrolase 28 (Homo sapiens) (Q96RU2 whole entry, looked up): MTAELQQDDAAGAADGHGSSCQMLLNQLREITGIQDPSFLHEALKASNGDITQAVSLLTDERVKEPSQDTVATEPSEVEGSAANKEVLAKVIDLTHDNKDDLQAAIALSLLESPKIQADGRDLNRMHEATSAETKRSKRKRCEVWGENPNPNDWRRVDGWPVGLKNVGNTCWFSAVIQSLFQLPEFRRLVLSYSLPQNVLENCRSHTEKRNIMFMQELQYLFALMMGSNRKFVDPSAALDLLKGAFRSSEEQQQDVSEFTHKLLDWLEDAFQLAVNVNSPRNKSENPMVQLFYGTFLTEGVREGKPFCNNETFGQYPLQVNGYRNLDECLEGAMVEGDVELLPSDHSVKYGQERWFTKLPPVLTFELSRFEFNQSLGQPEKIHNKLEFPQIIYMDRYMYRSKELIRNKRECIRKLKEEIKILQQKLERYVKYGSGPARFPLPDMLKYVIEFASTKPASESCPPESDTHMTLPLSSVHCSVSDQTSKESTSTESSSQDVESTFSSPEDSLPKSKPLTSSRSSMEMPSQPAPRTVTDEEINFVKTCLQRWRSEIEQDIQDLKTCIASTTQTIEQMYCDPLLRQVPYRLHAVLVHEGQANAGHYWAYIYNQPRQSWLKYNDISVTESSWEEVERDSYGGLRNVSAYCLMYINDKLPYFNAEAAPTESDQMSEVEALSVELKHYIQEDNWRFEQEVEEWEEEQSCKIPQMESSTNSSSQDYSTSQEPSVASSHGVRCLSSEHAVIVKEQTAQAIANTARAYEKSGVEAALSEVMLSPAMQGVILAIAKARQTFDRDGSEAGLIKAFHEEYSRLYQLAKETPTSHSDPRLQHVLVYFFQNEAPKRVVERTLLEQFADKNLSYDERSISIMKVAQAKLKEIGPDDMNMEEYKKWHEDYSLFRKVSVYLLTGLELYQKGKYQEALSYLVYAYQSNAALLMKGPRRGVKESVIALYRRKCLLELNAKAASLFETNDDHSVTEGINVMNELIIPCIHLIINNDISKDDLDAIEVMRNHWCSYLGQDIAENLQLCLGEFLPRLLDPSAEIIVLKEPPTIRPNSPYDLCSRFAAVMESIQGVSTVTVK

By IC50 is commonly meant the concentration that gives 50% inhibition. As to `COCCNC(=O)c1ccn(-c2ccc3ccc(-c4cnn(C)c4)cn23)n1`, the IC50 is > 50 µM (inactive).

For the compound `CSc1ncc(C(=O)NC(C)c2ccccc2)c(-c2ccccc2)n1` (configuration not stated), the IC50 is 18.5 µM. Next, `COc1ccc(S(=O)(=O)Nc2ccc(Nc3ccc(-n4cccn4)nn3)cc2)cc1`: 41 µM; `CCOC(=O)c1ccc(S(=O)(=O)N2CCC(C(=O)OC(C)C(=O)Nc3cccc([N+](=O)[O-])c3)CC2)cc1` (configuration not stated): 9.35 µM. Next, `Cc1cccc(NC(=O)CSc2nnc(-c3n[nH]c4c3CCC4)n2N)c1`: 26.6 µM; `CC(C)C(=O)Nc1ccc(N2CCN(Cc3ccc(F)cc3)C2=O)nc1`: 19.3 µM. Next, `c1ccc2c(-c3nc(C4CC4)no3)nnc(NCc3ccncc3)c2c1`: 35.9 µM.

For the compound `Cc1cccc(OCCn2c(CCNC(=O)C3CCCCC3)nc3ccccc32)c1`, the concentration for half-maximal inhibition (IC50) was 21.6 µM.

Take `Cc1cc(C(F)(F)F)n(-c2ccc(NC(=O)Nc3cccc(C(F)(F)F)c3)cc2)n1`: the IC50 was 5.05 µM. Next, `COc1cccc(NC(=O)c2nnn(-c3ccccc3)n2)c1`: 7.33 µM; `CC(C)N1C[C@@H]2C[C@H](NS(=O)(=O)c3cccc(C#N)c3)CN2Cc2ccccc21`: > 50 µM (inactive); `CN1CC2CN(C(=O)c3ccc(F)cc3)CCN2Cc2ccccc21` (configuration not stated): > 50 µM (inactive). `COc1cccc(NC(=O)c2ccc(F)cc2Cl)c1`: the concentration for half-maximal inhibition (IC50) is 18.7 µM. With `O=C(Nc1ccc2c(c1)OCCO2)Nc1ccc2nc3n(c(=O)c2c1)CCCC3`, the IC50 was 15.1 µM. As to `C=C(NC(=O)C(=C)NC(=O)c1csc(-c2ccc3c(n2)-c2csc(n2)-c2csc(n2)C(C(C)C2CO2)NC(=O)C(Cc2ccc(O)cc2)NC(=O)c2csc(n2)C(C(O)c2ccccc2)NC(=O)c2nc(sc2C)C(CC(N)=O)NC(=O)c2csc-3n2)n1)C(=O)O` (configuration not stated), the concentration for half-maximal inhibition (IC50) was 24.9 µM. Next, `O=C1CC(c2ccco2)Cc2[nH]c(=O)c(C(=O)Nc3ccc(Cl)cc3)cc21` (configuration not stated): 3.08 µM.

For `CCOc1ccc(-c2nc(C#N)c(N3CCN(C(=O)c4ccccc4C)CC3)o2)cc1`, the IC50 was 12 µM. Take `CCOc1ccc(-c2cc3nc(C4CCN(C(=O)OC(C)(C)C)CC4)c(C(=O)Nc4cc(F)ccc4F)cn3n2)cc1`: the IC50 was > 50 µM (inactive). Turning to `CCCCCn1c(Sc2ccc(C)cc2)nc2c1c(=O)[nH]c(=O)n2C`, the IC50 is 14.5 µM. Next, `O=C(Nc1cccc2ccccc12)N1CCC(c2nc3c(nnn3Cc3ccc(F)cc3)c(=O)[nH]2)CC1`: 36.1 µM; `COc1ccc(-n2nnc(C(=O)Nc3ccccc3)c2N)cc1`: > 50 µM (inactive); `COc1ncccc1CN1CCn2c(Cn3cncn3)cnc2C1C` (configuration not stated): > 50 µM (inactive). Next, `Cc1cccc(NC(=O)Cn2c(-c3cnccn3)nc(C)c(C)c2=O)c1C`: > 50 µM (inactive); `O=S(=O)(c1ccccc1Cl)N1CCN(c2ccc3nnc(-c4ccco4)n3n2)CC1`: > 50 µM (inactive); `O=C(CNC(=O)OCc1ccccc1)Nc1ccc(Br)cc1C(=O)c1ccccc1Cl`: 11.3 µM.

As to `CNC(=O)C1CN(C(=O)c2ccc(OC)cc2)CC12CCCC2` (configuration not stated), the IC50 was > 50 µM (inactive). Next, `COCCn1c(=O)[nH]c2cc(C(=O)NCCNc3ccc([N+](=O)[O-])cc3C#N)ccc2c1=O`: 2.06 µM; `COc1ccc(CNC(=O)c2ccccc2N2C(=O)N3CCc4c([nH]c5ccccc45)[C@@]3(C)C2=O)cc1`: 37.4 µM. Next, `O=C1CN(C(=O)COC(=O)CCCN2C(=O)c3cccc4cccc(c34)C2=O)c2ccccc2N1`: 48.5 µM.

On to `COc1ccc(NC(=O)C2CC(=O)Nc3c(-c4ccc(Cl)cc4)cnn32)c(OC)c1` (configuration not stated), for which the IC50 is 14.5 µM. Next, `COc1cccc(N2CCN(C(=O)Nc3ccc4c(c3)NC(=O)CO4)CC2)c1`: 19.4 µM; `CN(C(=O)c1cccc2cccnc12)c1nc2c(s1)CCc1occc1-2`: 26.9 µM. Next, `COc1ccc(C2SCC(=O)Nc3c2c(=O)[nH]n3C2CCCCC2)cc1` (configuration not stated): 24.6 µM; `Cc1ccc(Cc2nc(-c3ccc(=O)[nH]c3)no2)cc1`: 0.423 µM. Next, `CCn1c(=N)n(CCOc2ccc(F)cc2)c2ccccc21`: 0.588 µM. Turning to `Cc1oc(C2CC2)cc1C(=O)N1CCC2(CC1)CC1(CO2)Nc2ccccc2-n2cccc21` (configuration not stated), the IC50 was > 50 µM (inactive). As for `Cn1ncc2c(=O)n(Cc3cccc(Cl)c3)cnc21`, the IC50 is 12.9 µM. Next, `Cc1ccc(-n2nnc(C(=O)NC3CCCCC3)c2N)cc1`: 27.2 µM; `CCOc1ccc(C2=NCCNC3=C2C(c2ccccc2)N(c2ccccc2)C3=O)cc1` (configuration not stated): > 50 µM (inactive). Next, `COc1ccc(CCNC(=O)c2noc3c2CCc2sccc2-3)cc1OC`: 0.655 µM. Next, `O=S1(=O)CCN(Cc2c(F)cccc2F)c2c(F)nc(N3CCOCC3)c(F)c21`: > 50 µM (inactive); `CCc1ccc(OCc2nnc(SCC(=O)Nc3ccccc3OC)n2Cc2ccccc2)cc1`: > 50 µM (inactive). `CC(=O)c1ccccc1NC(=O)COc1ccc(-c2ccc(C#N)cc2)cc1`: the half-inhibitory concentration (IC50) is 4.72 µM.

Regarding `O=C(Cn1ncc2c(N3CCCCCC3)ncnc21)NCc1ccccc1`, the IC50 was > 50 µM (inactive). Next, `O=C(c1ccc(Cl)cc1)c1c[nH]cc1-c1c(F)cccc1Cl`: 33.1 µM.

For the compound `COc1ccc(C2CC(c3ccccc3)N(C(=O)C3CC3)c3ncnn32)cc1` (configuration not stated), the IC50 was > 50 µM (inactive).

Consider `Cc1ccc(NC(=O)c2sc3ncn(CC(=O)N4CCN(c5ccccn5)CC4)c(=O)c3c2C)c(Br)c1`, for which the half-inhibitory concentration (IC50) is 16.1 µM. Next, `CCc1ccc(C2c3c(oc4ccccc4c3=O)C(=O)N2c2nncs2)cc1` (configuration not stated): > 50 µM (inactive). Next, `COc1cccc(CNC(=O)c2ccc3c(c2)NC(=O)C2CCCN32)c1OC` (configuration not stated): > 50 µM (inactive); `CC1=C(Cn2c3cccc(=O)c-3nc3ccccc32)CCC(C)(C)C1`: 2.02 µM; `CC(=O)Nc1cc2cc(-n3cccc3)ccc2oc1=O`: 24.9 µM. Next, `COc1ccc(C)cc1NC(=O)C(NS(=O)(=O)c1ccc2c(c1)CCN2C(C)=O)C(C)C` (configuration not stated): > 50 µM (inactive); `CC1CCc2c(sc3ncnc(OCc4cccc([N+](=O)[O-])c4)c23)C1` (configuration not stated): under 0.05 µM. Regarding `CSc1cccc(NC(=O)CNC(=O)c2cc3ccccc3o2)c1`, the IC50 is 46.2 µM. As to `COc1ccc(CCNC(=O)c2cc(C3CC3)nc3c2cnn3C(C)C)cc1`, the IC50 was 3.47 µM. On to `Clc1cccc(N2CCN(c3ncnc4nc[nH]c34)CC2)c1`, for which the concentration for half-maximal inhibition (IC50) is 39.5 µM. Next, `O=C(CCCn1c(=O)c2ccccc2n(CC(=O)NCc2ccccc2Cl)c1=O)NCc1ccc2c(c1)OCO2`: 1.94 µM. Next, `COc1ccc(CCNc2c(-c3ccccc3O)nc3cnccn23)cc1OC`: > 50 µM (inactive); `CNC(=O)c1c2n(c3ncccc13)CCN(S(=O)(=O)c1ccc(-c3ccccc3)cc1)C2`: 10.2 µM. Next, `Cn1c(CCN2CCCC2)nc2cc(NC(=O)c3ccccc3)ccc21`: > 50 µM (inactive); `COc1ccc(N2CCN(Cc3nnnn3Cc3ccc4c(c3)OCO4)CC2)cc1`: > 50 µM (inactive). As for `Cc1c(-c2ccccc2)oc2c(C(=O)OCC(=O)Nc3ccccc3F)cccc2c1=O`, the IC50 was > 50 µM (inactive). In the case of `CCc1c(C)c(C#N)c2nc3ccccc3n2c1N1CCN(C2CCCC2)CC1`, the concentration for half-maximal inhibition (IC50) was 12.3 µM. Next, `CCCNc1cc(-c2ccccc2)nc2nc(-c3cccnc3)nn12`: > 50 µM (inactive); `Cc1nc2ccccc2nc1SCC(=O)Nc1ccc2c(c1)OCO2`: 25.1 µM; `O=C(COC(=O)c1ccc(Cl)cc1)Nc1ccc2[nH]c(=O)[nH]c2c1`: 9.08 µM.

As for `O=C(/C=C/c1c(F)cccc1Cl)N1CCc2ccccc2C1`, the IC50 was 36.3 µM.

In the case of `CCn1c(SCc2cccc(C)c2)nnc1-c1cnccn1`, the IC50 is 22 µM. Next, `COc1ccc(Cl)cc1NC(=O)c1cc(-c2ccccn2)n[nH]1`: 0.547 µM.

For the compound `CCOC(=O)c1ccc(NC(=O)c2cnc(N3CCOCC3)nc2)cc1`, the IC50 is > 50 µM (inactive). Next, `Cc1cccc(NC(=O)c2ccn(COc3ccc(F)cc3F)n2)c1C`: > 50 µM (inactive); `O=C(CSc1nncc2ccccc12)Nc1ccc2c(c1)OCO2`: 37.5 µM; `Cc1ccc2nc(N3CCc4ccccc4C3)c3nncn3c2c1`: > 50 µM (inactive). Next, `COc1ccc(/C=C/C(=O)Nc2c3c(nc4c2CCC4)CCCC3)cc1`: 12.1 µM; `Cc1c(C)c2ccc(OCC(=O)NCc3ccncc3)c(C)c2oc1=O`: 49.2 µM. Next, `COc1ccc(OC)c(-c2cn3ccn(-c4ccc5c(c4)CCC5)c(=O)c3n2)c1`: > 50 µM (inactive); `COc1cccc(NC(=O)Nc2ccc(NC(C)=O)cc2)c1`: 4.04 µM.

For the compound `O=c1sc2ccccc2c(=O)n1Cc1cccc(C(F)(F)F)c1`, the 50% inhibitory concentration (IC50) was 1.09 µM. Next, `COc1cc(C)cc2c1C(=O)c1c(cc(O)c(Cl)c1O)C2=O`: 1.48 µM; `COc1ccc(NC(=O)COc2cc(CSc3ccccc3)ncc2OC)cc1`: > 50 µM (inactive). Next, `COC1=CC(=O)c2c(O)c3c(c(C)c2C1=O)C[C@@]1(O)[C@H](O[C@H]2CC[C@H](O[C@H]4C[C@@](C)(O)[C@H](OC(=O)c5c(C)ccc(C)c5O)[C@H](C)O4)[C@@H](C)O2)C(=O)C(C(C)=O)=C(O)[C@@]1(O)C3=O`: 2.27 µM; `O=C(C(c1ccccc1)c1ccccc1)N1CCC(c2nc3c(nnn3Cc3c(F)cccc3Cl)c(=O)[nH]2)CC1`: 6.96 µM. With `Cc1ccc(-n2cc(C(=O)NCc3cccnc3)nn2)cc1C`, the IC50 is 16.6 µM. Regarding `Cc1ccc([N+](=O)[O-])cc1S(=O)(=O)Nc1cc2sc(=O)oc2c2ccccc12`, the IC50 is 13.6 µM. Next, `O=C(Nc1ccccc1Sc1ncc(-c2ccc(Cl)cc2)cn1)c1ccco1`: 23.6 µM. Next, `COc1ccc(CNC(=O)CCc2nnc3n(Cc4ccccc4Cl)c(=O)c4ccccc4n23)cc1`: 2.18 µM; `CC1CCN(c2nnc(-c3nc(C4CC4)no3)c3ccccc23)CC1`: > 50 µM (inactive).

The record behind these values is PubChem BioAssay AID1645866 (Buhrlage Lab, Dana-Farber Cancer Institute and Novartis …, 2021).
